From patent US10793580B2, “Substituted pyrazoloazepin-8-ones and their use as phosphodiesterase inhibitors” (LEO Pharma A/S, priority 2016, dated 2020)

The compounds below were run against human PDE4D catalytic domain (Homo sapiens (Human), UniProt Q08499) (assay: PDE4 Assay (TR-FRET, FAM-cAMP cleavage)). Conditions: Table 16, Examples 277-296; read-out: PDE4 IC50 range.
human PDE4D catalytic domain, sequence (Q08499 380-740): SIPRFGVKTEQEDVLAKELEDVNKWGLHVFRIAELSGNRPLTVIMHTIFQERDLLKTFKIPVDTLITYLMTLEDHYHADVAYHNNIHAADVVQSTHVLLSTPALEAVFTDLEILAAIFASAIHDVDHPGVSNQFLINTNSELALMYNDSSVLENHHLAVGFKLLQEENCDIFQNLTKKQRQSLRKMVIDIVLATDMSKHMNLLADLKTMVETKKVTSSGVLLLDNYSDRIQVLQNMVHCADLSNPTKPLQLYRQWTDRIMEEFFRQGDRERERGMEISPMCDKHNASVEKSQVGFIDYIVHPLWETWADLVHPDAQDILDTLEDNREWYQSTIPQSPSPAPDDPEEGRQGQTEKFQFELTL
Assay type: biochemical
Method in brief: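 PDE4D catalytic domain (S380-L740) incubated briefly with unlabelled cAMP plus FAM-cAMP and titrated compound. Reaction stopped with binding buffer holding metal-ion nanoparticles that bind AMP phospho groups and Tb donor, and AMP formation read by TR-FRET. IC50 versus controls, reported as ranges (nM).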
CCn1nc(C[C@@H](C)COC(=O)c2cnsc2)c2c1C(=O)NCC1(CCOCC1)C2 [Example 284, [(2R)-3-(1-ethyl-8-oxo-spiro[6,7-dihydro-4H-pyrazolo[3,4-c]azepine-5,4′-tetrahydropyran]-3-yl)-2-methyl-propyl] isothiazole-4-carboxylate] gave an IC50 of under 0.1 µM. Compound CCn1nc(C[C@@H](C)COC(=O)c2cnn(C)c2)c2c1C(=O)NCC1(CCOCC1)C2 [Example 279, [(2R)-3-(1-ethyl-8-oxo-spiro[6,7-dihydro-4H-pyrazolo[3,4-c]azepine-5,4′-tetrahydropyran]-3-yl)-2-methyl-propyl] 1-methylpyrazole-4-carboxylate] has an IC50 of under 0.1 µM. For CCn1nc(C[C@@H](C)COC(=O)c2csc(C)n2)c2c1C(=O)NCC1(CCOCC1)C2 [Example 290, [(2R)-3-(1-ethyl-8-oxo-spiro[6,7-dihydro-4H-pyrazolo[3,4-c]azepine-5,4′-tetrahydropyran]-3-yl)-2-methyl-propyl] 2-methylthiazole-4-carboxylate], the IC50 was under 0.1 µM.

Same assay, conditions: Table 17, Examples 297-316; read-out: PDE4 IC50 range
CCn1nc(CC(C)(C)COC(=O)c2cnc(C)o2)c2c1C(=O)NCC1(CCOCC1)C2 [Example 302, [3-(1-ethyl-8-oxo-spiro[6,7-dihydro-4H-pyrazolo[3,4-c]azepine-5,4′-tetrahydropyran]-3-yl)-2,2-dimethyl-propyl] 2-methyloxazole-5-carboxylate] gave an IC50 of under 0.1 µM. In the case of CCn1nc(CC(C)(C)COC(=O)C2CCN(C(=O)OC)CC2)c2c1C(=O)NCC1(CCOCC1)C2 [Example 315, [3-(1-ethyl-8-oxo-spiro[6,7-dihydro-4H-pyrazolo[3,4-c]azepine-5,4′-tetrahydro-pyran]-3-yl)-2,2-dimethyl-propyl] 1-methoxycarbonyl-peridine-4-carboxylate], the IC50 is reported as under 0.1 µM.

Same assay, conditions: human PDE4D catalytic domain (UniProt Q08499 [S380-L740]); 50% inhibition of substrate cleavage; read-out: PDE4 IC50 range
In the case of CCn1nc(CC(C)(C)COC(=O)CCS(C)(=O)=O)c2c1C(=O)NCC1(CCOCC1)C2 [Example 199, [3-(1-ethyl-8-oxo-spiro[6,7-dihydro-4H-pyrazolo[3,4-c]azepine-5,4′-tetrahydropyran]-3-yl)-2,2-dimethyl-propyl] 3-methylsulfonylpropanoate], the IC50 is reported as under 0.1 µM. Work on CCn1nc(CCCCOC(=O)c2ccc(OC)cc2)c2c1C(=O)NCC1(CCOCC1)C2 [Example 125, 4-(1-ethyl-8-oxo-spiro[6,7-dihydro-4H-pyrazolo[3,4-c]azepine-5,4′-tetrahydropyran]-3-yl)butyl 4-methoxybenzoate] yielded an IC50 of under 0.1 µM. Compound CCn1nc(CCCOC(=O)c2ccc(C(F)(F)F)c(Cl)c2)c2c1C(=O)NCC1(CCOCC1)C2 [Example 86, 3-(1-ethyl-8-oxo-spiro[6,7-dihydro-4H-pyrazolo[3,4-c]azepine-5,4′-tetrahydro-pyran]-3-yl)propyl 3-chloro-4-(trifluoromethyl)benzoate] has an IC50 of under 0.1 µM. With CCn1nc(C[C@@H](C)COC(=O)c2cccc(C(=O)N3CCCC3)c2)c2c1C(=O)NCC1(CCOCC1)C2 [Example 181, [(2R)-3-(1-ethyl-8-oxo-spiro[6,7-dihydro-4H-pyrazolo[3,4-c]azepine-5,4′-tetrahydropyran]-3-yl)-2-methyl-propyl] 3-(pyrrolidine-1-carbonyl)benzoate] the IC50 was under 0.1 µM. Compound CCn1nc(C[C@@H](C)COC(=O)CCS(C)(=O)=O)c2c1C(=O)NCC1(CCOCC1)C2 [Example 152, [(2R)-3-(1-ethyl-8-oxo-spiro[6,7-dihydro-4H-pyrazolo[3,4-c]azepine-5,4′-tetrahydropyran]-3-yl)-2-methyl-propyl] 3-methylsulfonylpropanoate] has an IC50 of under 0.1 µM. In the case of CCn1nc(CCCOC(=O)c2cccc(Cl)c2F)c2c1C(=O)NCC1(CCOCC1)C2 [Example 50, 3-(1-ethyl-8-oxo-spiro[6,7-dihydro-4H-pyrazolo[3,4-c]azepine-5,4′-tetrahydropyran]-3-yl)propyl 3-chloro-2-fluoro-benzoate], the IC50 is reported as under 0.1 µM. Compound CCn1nc(CCCCOC(=O)c2ccc(S(=O)(=O)N(C)C)cc2)c2c1C(=O)NCC1(CCOCC1)C2 [Example 132, 4-(1-ethyl-8-oxo-spiro[6,7-dihydro-4H-pyrazolo[3,4-c]azepine-5,4′-tetrahydropyran]-3-yl)butyl 4-(dimethyl-sulfamoyl)benzoate] has an IC50 of under 0.1 µM. CCn1nc(CCCOC(=O)c2ccc(Cl)cc2C)c2c1C(=O)NCC1(CCOCC1)C2 [Example 43, 3-(1-ethyl-8-oxo-spiro[6,7-dihydro-4H-pyrazolo[3,4-c]azepine-5,4′-tetrahydropyran]-3-yl)propyl 4-chloro-2-methyl-benzoate] was tested, and the IC50 was under 0.1 µM. CCn1nc(C[C@@H](C)COC(=O)c2ccc(C(=O)N3CCCC3)cc2)c2c1C(=O)NCC1(CCOCC1)C2 [Example 172, [(2R)-3-(1-ethyl-8-oxo-spiro[6,7-dihydro-4H-pyrazolo[3,4-c]azepine-5,4′-tetrahydropyran]-3-yl)-2-methyl-propyl] 4-(pyrrolidine-1-carbonyl)benzoate] showed an IC50 of under 0.1 µM. CCn1nc(CCCOC(=O)c2cccc(C(=O)NC)c2)c2c1C(=O)NCC1(CCOCC1)C2 [Example 114, 3-(1-ethyl-8-oxo-spiro[6,7-dihydro-4H-pyrazolo[3,4-c]azepine-5,4′-tetrahydropyran]-3-yl)propyl 3-(methyl-carbamoyl)benzoate] showed an IC50 of under 0.1 µM. CCn1nc(CCCOC(=O)c2c(F)cccc2Cl)c2c1C(=O)NCC1(CCOCC1)C2 [Example 52, 3-(1-ethyl-8-oxo-spiro[6,7-dihydro-4H-pyrazolo[3,4-c]azepine-5,4′-tetrahydropyran]-3-yl)propyl 2-chloro-6-fluoro-benzoate] showed an IC50 of under 0.1 µM. CCc1ccc(C(=O)OCCCc2nn(CC)c3c2CC2(CCOCC2)CNC3=O)cc1 [Example 15, 3-(1-ethyl-8-oxo-spiro[6,7-dihydro-4H-pyrazolo[3,4-c]azepine-5,4′-tetrahydropyran]-3-yl)propyl 4-ethylbenzoate] gave an IC50 of under 0.1 µM. Work on CCn1nc(C[C@@H](C)COC(=O)c2ccc(C(=O)N3CCCCC3)cc2)c2c1C(=O)NCC1(CCOCC1)C2 [Example 173, [(2R)-3-(1-ethyl-8-oxo-spiro[6,7-dihydro-4H-pyrazolo[3,4-c]azepine-5,4′-tetrahydropyran]-3-yl)-2-methyl-propyl] 4-(piperidine-1-carbonyl)benzoate] yielded an IC50 of under 0.1 µM. CCn1nc(C[C@@H](C)COC(=O)c2ccc(C(=O)N3CCN(C)CC3)cc2)c2c1C(=O)NCC1(CCOCC1)C2 [Example 175, [(2R)-3-(1-ethyl-8-oxo-spiro[6,7-dihydro-4H-pyrazolo[3,4-c]azepine-5,4′-tetrahydropyran]-3-yl)-2-methyl-propyl] 4-(4-methylpiperazine-1-carbonyl)benzoate] gave an IC50 of under 0.1 µM. Compound CCn1nc(C[C@@H](C)COC(=O)c2ccc(C(N)=O)cc2)c2c1C(=O)NCC1(CCOCC1)C2 [Example 169, [(2R)-3-(1-ethyl-8-oxo-spiro[6,7-dihydro-4H-pyrazolo[3,4-c]azepine-5,4′-tetrahydropyran]-3-yl)-2-methyl-propyl] 4-carbamoylbenzoate] has an IC50 of under 0.1 µM. Compound CCn1nc(CCCOC(=O)c2ccc(S(=O)(=O)N3CCCC3)cc2)c2c1C(=O)NCC1(CCOCC1)C2 [Example 96, 3-(1-ethyl-8-oxo-spiro[6,7-dihydro-4H-pyrazolo[3,4-c]azepine-5,4′-tetrahydro-pyran]-3-yl)propyl 4-pyrro-lidin-1-ylsulfonylbenzoate] has an IC50 of under 0.1 µM. For CCn1nc(CCCCOC(=O)c2cnc(C)o2)c2c1C(=O)NCC1(CCOCC1)C2 [Example 267, 4-(1-ethyl-8-oxo-spiro[6,7-dihydro-4H-pyrazolo[3,4-c]azepine-5,4′-tetrahydropyran]-3-yl)butyl 2-methyloxazole-5-carboxylate], the IC50 was under 0.1 µM. With CCn1nc(C[C@@H](C)COC(=O)c2ccc(C)cc2)c2c1C(=O)NCC1(CCOCC1)C2 [Example 140, [(2R)-3-(1-ethyl-8-oxo-spiro[6,7-dihydro-4H-pyrazolo[3,4-c]azepine-5,4′-tetrahydropyran]-3-yl)-2-methyl-propyl] 4-methylbenzoate] the IC50 was under 0.1 µM. CCn1nc(CCCOC(=O)c2ccc(OC)c(Cl)c2)c2c1C(=O)NCC1(CCOCC1)C2 [Example 58, 3-(1-ethyl-8-oxo-spiro[6,7-dihydro-4H-pyrazolo[3,4-c]azepine-5,4′-tetrahydropyran]-3-yl)propyl 3-chloro-4-methoxy-benzoate] showed an IC50 of under 0.1 µM. Compound CCn1nc(CCCOC(=O)c2ccc(OC)cc2)c2c1C(=O)NCC1(CCOCC1)C2 [Example 16, 3-(1-ethyl-8-oxo-spiro[6,7-dihydro-4H-pyrazolo[3,4-c]azepine-5,4′-tetrahydropyran]-3-yl)propyl 4-methoxybenzoate] has an IC50 of under 0.1 µM. For CCn1nc(CC(C)(C)COC(=O)c2ccccc2F)c2c1C(=O)NCC1(CCOCC1)C2 [Example 193, [3-(1-ethyl-8-oxo-spiro[6,7-dihydro-4H-pyrazolo[3,4-c]azepine-5,4′-tetrahydropyran]-3-yl)-2,2-dimethyl-propyl] 2-fluorobenzoate], the IC50 was under 0.1 µM. Work on CCc1nc(C(=O)OCCCc2nn(CC)c3c2CC2(CCOCC2)CNC3=O)co1 [Example 251, 3-(1-ethyl-8-oxo-spiro[6,7-dihydro-4H-pyrazolo[3,4-c]azepine-5,4′-tetrahydropyran]-3-yl)propyl 2-ethyloxazole-4-carboxylate] yielded an IC50 of under 0.1 µM. Compound CCn1nc(CCCOC(=O)c2cnc(C)nc2)c2c1C(=O)NCC1(CCOCC1)C2 [Example 247, 3-(1-ethyl-8-oxo-spiro[6,7-dihydro-4H-pyrazolo[3,4-c]azepine-5,4′-tetrahydropyran]-3-yl)propyl 2-methylpyrimidine-5-carboxylate] has an IC50 of under 0.1 µM. CCn1nc(CCCOC(=O)c2cccc(C(N)=O)c2)c2c1C(=O)NCC1(CCOCC1)C2 [Example 113, 3-(1-ethyl-8-oxo-spiro[6,7-dihydro-4H-pyrazolo[3,4-c]azepine-5,4′-tetrahydropyran]-3-yl)propyl 3-carbamoylbenzoate] was tested, and the IC50 was under 0.1 µM.
